Assays:
giant foxtail = test: Test B pre/postemergence giant foxtail; assay type: in vivo, Setaria faberii
Procedure, shortened: (§1)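 Test chemicals in a non-phytotoxic solvent mixture with surfactant were sprayed preemergence onto planted seeds and postemergence onto plants 2 to 18 cm tall (1- to 4-leaf stage). After twelve to sixteen days in a greenhouse, injury was visually rated against untreated controls from 0 (no effect) to 10 (complete control).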

surinam grass = test: Test B pre/postemergence surinam grass; assay type: in vivo, Brachiaria decumbens
Procedure, shortened: as §1

duck salad = test: Test B flood test duck salad; assay type: in vivo, Heteranthera limosa
Procedure, shortened: (§2)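 Read-out is a visual response score from 0 (no effect) to 10 (complete control), assigned by comparison with untreated controls. Treatment was applied at the 2-leaf stage, and plants stayed in the greenhouse for twelve to sixteen days before scoring.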

velvetleaf = test: Test B pre/postemergence velvetleaf; assay type: in vivo, Abutilon theophrasti
Procedure, shortened: as §1

morningglory = test: Test B pre/postemergence morningglory; assay type: in vivo, Ipomoea hederacea
Procedure, shortened: as §1

rape = test: Test B pre/postemergence rape; assay type: in vivo, Brassica napus
Procedure, shortened: as §1

blackgrass = test: Test B pre/postemergence blackgrass; assay type: in vivo, Alopecurus myosuroides
Procedure, shortened: as §1

bamyardgrass = test: Test B flood test barnyardgrass; assay type: in vivo, Echinochloa crus-galli
Procedure, shortened: as §2

pigweed = test: Test B pre/postemergence pigweed; assay type: in vivo, Amaranthus retroflexus
Procedure, shortened: as §1

bedstraw = test: Test B pre/postemergence bedstraw; assay type: in vivo, Galium aparine
Procedure, shortened: as §1

smallflower flatsedge = test: Test B flood test smallflower flatsedge; assay type: in vivo, Cyperus difformis
Procedure, shortened: as §2

wheat = test: Test B pre/postemergence wheat; assay type: in vivo, Triticum aestivum
Procedure, shortened: as §1

wild oat = test: Test B pre/postemergence wild oat; assay type: in vivo, Avena fatua
Procedure, shortened: as §1

soybean = test: Test B pre/postemergence soybean; assay type: in vivo, Glycine max
Procedure, shortened: as §1

purple nutsedge = test: Test B pre/postemergence purple nutsedge; assay type: in vivo, Cyperus rotundus
Procedure, shortened: as §1

cocklebur = test: Test B pre/postemergence cocklebur; assay type: in vivo, Xanthium strumarium
Procedure, shortened: as §1

[1] = Postemergence, Rate 1000 g/ha, scale 0 to 10 (0 no effect, 10 complete control)
[2] = Preemergence, Rate 62 g/ha, scale of 0 to 10 where 0 is no effect and 10 is complete control
[3] = Preemergence, Rate 125 g/ha, 0 is no effect, 10 is complete control
[4] = Preemergence, Rate 250 g/ha, scale 0 to 10, 0 is no effect, 10 is complete control
[5] = Preemergence, Rate 500 g/ha, scale 0 to 10 (0 no effect, 10 complete control)
[6] = Rate 62 g/ha, Postemergence, scale of 0 to 10 where 0 is no effect and 10 is complete control
[7] = Rate 125 g/ha, Postemergence, scale 0 to 10
[8] = Rate 500 g/ha, Postemergence, scale 0 to 10
[9] = Rate 1000 g/ha, Preemergence, scale 0 to 10 (0 no effect, 10 complete control)
[10] = Rate 2000 g/ha, Postemergence, scale 0 to 10
[11] = Rate 2000 g/ha, Preemergence, scale 0 to 10
[12] = Rate 62 g/ha, headed Pre-emergence (flood test species), scale 0 to 10 (0 no effect, 10 complete control)
[13] = Rate 125 g/ha, Pre-emergence, flood test species, scale 0 to 10 where 0 is no effect and 10 is complete control
[14] = Rate 250 g/ha, Pre-emergence, flood-test species, scale 0 to 10, 0 is no effect, 10 is complete control
[15] = Rate 500 g/ha, headed Pre-emergence (flood test species), scale 0 to 10 (0 no effect, 10 complete control)
[16] = Rate 1000 g/ha, Pre-emergence (as headed), scale 0 to 10
[17] = Rate 2000 g/ha, Pre-emergence (as headed), scale 0 to 10

CCN(C(=O)n1oc(=O)n(N(C)c2ccccc2)c1=O)C1CCCCC1 [Compound 183]
0: Giant foxtail plant response rating (giant foxtail; [1]) | Giant foxtail plant response rating (giant foxtail; [2]) | Giant foxtail plant response rating (0 to 10 scale) (giant foxtail; [3]) | Giant foxtail plant response rating (giant foxtail; [4]) | Giant foxtail plant response rating (giant foxtail; [6]) | Giant foxtail plant response rating (giant foxtail; [7]) | Plant response rating (0 to 10; 0 is no effect, 10 is complete control), Giant foxtail (giant foxtail; Rate 250 g/ha, Postemergence) | Giant foxtail plant response rating (giant foxtail; [8]) | Giant foxtail plant response rating (giant foxtail; [10]) | B. signalgrass plant response rating (surinam grass; [1]) | B. signalgrass plant response rating (surinam grass; [2]) | B. signalgrass plant response rating (0 to 10 scale) (surinam grass; [3]) | B. signalgrass plant response rating (surinam grass; [6]) | B. signalgrass plant response rating (surinam grass; Rate 125 g/ha, Postemergence, scale 0 (no effect) to 10 (complete control)) | Plant response rating, B. signalgrass (surinam grass; Rate 250 g/ha, Postemergence, scale 0 to 10, 0 is no effect, 10 is complete control) | B. signalgrass plant response rating (surinam grass; Rate 500 g/ha, Postemergence, scale 0 to 10, 0 no effect, 10 complete control) | Plant response rating, B. signalgrass (surinam grass; [9]) | B. signalgrass plant response rating (surinam grass; [10]) | Ducksalad plant response rating (duck salad; [12]) | Ducksalad plant response rating (duck salad; [13]) | Ducksalad plant response rating (duck salad; [14]) | Plant response rating, Ducksalad (duck salad; [15]) | Ducksalad plant response rating (duck salad; [16]) | Ducksalad plant response rating (duck salad; [17]) | Velvetleaf plant response rating (velvetleaf; [2]) | Velvetleaf plant response rating (velvetleaf; [4]) | Velvetleaf plant response rating (velvetleaf; [5]) | Velvetleaf plant response rating (velvetleaf; [7]) | Plant response rating (0 to 10; 0 is no effect, 10 is complete control), Velvetleaf (velvetleaf; Rate 250 g/ha, Postemergence) | Velvetleaf plant response rating (velvetleaf; [8]) | Plant response rating, Velvetleaf (velvetleaf; [9]) | Velvetleaf plant response rating (velvetleaf; [11]) | Morningglory plant response rating (morningglory; [2]) | Morningglory plant response rating (0 to 10 scale) (morningglory; [3]) | Morningglory plant response rating (morningglory; [4]) | Morningglory plant response rating (morningglory; [5]) | Morningglory plant response rating (morningglory; [6]) | Morningglory plant response rating (morningglory; [7]) | Plant response rating, Morningglory (morningglory; [9]) | Morningglory plant response rating (morningglory; [11]) | Rape plant response rating (rape; [1]) | Rape plant response rating (rape; [2]) | Rape plant response rating (0 to 10 scale) (rape; [3]) | Rape plant response rating (rape; [4]) | Rape plant response rating (rape; [5]) | Rape plant response rating (rape; [6]) | Rape plant response rating (rape; [7]) | Plant response rating (0 to 10; 0 is no effect, 10 is complete control), Rape (rape; Rate 250 g/ha, Postemergence) | Rape plant response rating (rape; [8]) | Plant response rating, Rape (rape; [9]) | Rape plant response rating (rape; [10]) | Rape plant response rating (rape; [11]) | Blackgrass plant response rating (blackgrass; [1]) | Blackgrass plant response rating (blackgrass; [2]) | Blackgrass plant response rating (0 to 10 scale) (blackgrass; [3]) | Blackgrass plant response rating (blackgrass; [4]) | Blackgrass plant response rating (blackgrass; [5]) | Blackgrass plant response rating (blackgrass; [6]) | Blackgrass plant response rating (blackgrass; [7]) | Plant response rating (0 to 10; 0 is no effect, 10 is complete control), Blackgrass (blackgrass; Rate 250 g/ha, Postemergence) | Blackgrass plant response rating (blackgrass; [8]) | Blackgrass plant response rating (blackgrass; [10]) | Barnyardgrass plant response rating (bamyardgrass; [12]) | Barnyardgrass plant response rating (bamyardgrass; [13]) | Barnyardgrass plant response rating (bamyardgrass; [14]) | Plant response rating, Barnyardgrass (bamyardgrass; [15]) | Barnyardgrass plant response rating (bamyardgrass; [16]) | Barnyardgrass plant response rating (bamyardgrass; Rate 2000 g/ha, Pre-emergence (as headed), scale 0 to 10, 0 no effect, 10 complete control) | Redroot pigweed plant response rating (pigweed; [1]) | Redroot pigweed plant response rating (pigweed; [2]) | Redroot pigweed plant response rating (0 to 10 scale) (pigweed; [3]) | Redroot pigweed plant response rating (pigweed; [4]) | Redroot pigweed plant response rating (pigweed; [5]) | Redroot pigweed plant response rating (pigweed; [6]) | Redroot pigweed plant response rating (pigweed; [7]) | Plant response rating (0 to 10; 0 is no effect, 10 is complete control), Redroot pigweed (pigweed; Rate 250 g/ha, Postemergence) | Redroot pigweed plant response rating (pigweed; [8]) | Plant response rating, Redroot pigweed (pigweed; [9]) | Redroot pigweed plant response rating (pigweed; [10]) | Redroot pigweed plant response rating (pigweed; [11]) | Bedstraw plant response rating (bedstraw; [2]) | Bedstraw plant response rating (0 to 10 scale) (bedstraw; [3]) | Bedstraw plant response rating (bedstraw; [4]) | Bedstraw plant response rating (bedstraw; [6]) | Bedstraw plant response rating (bedstraw; [7]) | S. Flatsedge plant response rating (smallflower flatsedge; Pre-emergence, Rate 1000 g/ha, scale 0 to 10 (0 no effect, 10 complete control)) | S. Flatsedge plant response rating (smallflower flatsedge; [12]) | S. Flatsedge plant response rating (smallflower flatsedge; [13]) | S. Flatsedge plant response rating (smallflower flatsedge; [14]) | S. Flatsedge plant response rating (smallflower flatsedge; Rate 500 g/ha, Pre-emergence, flood test species, scale 0 to 10 (0 no effect, 10 complete control)) | S. Flatsedge plant response rating (smallflower flatsedge; [17]) | Wheat plant response rating (wheat; [1]) | Wheat plant response rating (wheat; [2]) | Wheat plant response rating (wheat; [4]) | Wheat plant response rating (wheat; [5]) | Wheat plant response rating (wheat; [7]) | Plant response rating (0 to 10; 0 is no effect, 10 is complete control), Wheat (wheat; Rate 250 g/ha, Postemergence) | Wheat plant response rating (wheat; [8]) | Plant response rating, Wheat (wheat; [9]) | Wheat plant response rating (wheat; [10]) | Wheat plant response rating (wheat; [11]) | Wild oats plant response rating (wild oat; [1]) | Wild oats plant response rating (wild oat; [2]) | Wild oats plant response rating (wild oat; [4]) | Wild oats plant response rating (wild oat; [5]) | Wild oats plant response rating (wild oat; [7]) | Plant response rating (0 to 10; 0 is no effect, 10 is complete control), Wild oats (wild oat; Rate 250 g/ha, Postemergence) | Wild oats plant response rating (wild oat; [8]) | Plant response rating, Wild oats (wild oat; [9]) | Wild oats plant response rating (wild oat; [10]) | Soybean plant response rating (soybean; [2]) | Soybean plant response rating (0 to 10 scale) (soybean; [3]) | Soybean plant response rating (soybean; [4]) | Soybean plant response rating (soybean; [5]) | Soybean plant response rating (soybean; [6]) | Plant response rating, Soybean (soybean; [9]) | Soybean plant response rating (soybean; [11]) | Nutsedge plant response rating (purple nutsedge; [1]) | Nutsedge plant response rating (purple nutsedge; [2]) | Nutsedge plant response rating (0 to 10 scale) (purple nutsedge; [3]) | Nutsedge plant response rating (purple nutsedge; [4]) | Nutsedge plant response rating (purple nutsedge; [5]) | Nutsedge plant response rating (purple nutsedge; [6]) | Nutsedge plant response rating (purple nutsedge; [7]) | Plant response rating (0 to 10; 0 is no effect, 10 is complete control), Nutsedge (purple nutsedge; Rate 250 g/ha, Postemergence) | Nutsedge plant response rating (purple nutsedge; [8]) | Plant response rating, Nutsedge (purple nutsedge; [9]) | Nutsedge plant response rating (purple nutsedge; [10]) | Nutsedge plant response rating (purple nutsedge; [11]) | Cocklebur plant response rating (cocklebur; [1]) | Cocklebur plant response rating (cocklebur; [2]) | Cocklebur plant response rating (0 to 10 scale) (cocklebur; [3]) | Cocklebur plant response rating (cocklebur; [4]) | Cocklebur plant response rating (cocklebur; [5]) | Cocklebur plant response rating (cocklebur; [6]) | Cocklebur plant response rating (cocklebur; [7]) | Plant response rating (0 to 10; 0 is no effect, 10 is complete control), Cocklebur (cocklebur; Rate 250 g/ha, Postemergence) | Cocklebur plant response rating (cocklebur; [8]) | Plant response rating, Cocklebur (cocklebur; [9]) | Cocklebur plant response rating (cocklebur; [11])
2: B. signalgrass plant response rating (surinam grass; [11]) | Morningglory plant response rating (morningglory; [8]) | Blackgrass plant response rating (blackgrass; [11]) | Soybean plant response rating (soybean; [1]) | Plant response rating (0 to 10; 0 is no effect, 10 is complete control), Soybean (soybean; Rate 250 g/ha, Postemergence) | Soybean plant response rating (soybean; [8]) | Cocklebur plant response rating (cocklebur; [10])
4: B. signalgrass plant response rating (surinam grass; [4]) | B. signalgrass plant response rating (surinam grass; [5]) | Morningglory plant response rating (morningglory; [1])
1: Velvetleaf plant response rating (velvetleaf; [1]) | Velvetleaf plant response rating (velvetleaf; [10]) | Plant response rating (0 to 10; 0 is no effect, 10 is complete control), Morningglory (morningglory; Rate 250 g/ha, Postemergence) | Plant response rating, Blackgrass (blackgrass; [9]) | Soybean plant response rating (soybean; [7])
3: Giant foxtail plant response rating (giant foxtail; [5]) | Bedstraw plant response rating (bedstraw; [8]) | Wild oats plant response rating (wild oat; [11]) | Soybean plant response rating (soybean; [10])
7: Bedstraw plant response rating (bedstraw; [5]) | Plant response rating (0 to 10; 0 is no effect, 10 is complete control), Bedstraw (bedstraw; Rate 250 g/ha, Postemergence) | Plant response rating, Bedstraw (bedstraw; [9])
10: Bedstraw plant response rating (bedstraw; [11])
5: Morningglory plant response rating (morningglory; [10])
9: Giant foxtail plant response rating (giant foxtail; [11])
6: Plant response rating, Giant foxtail (giant foxtail; [9])

From patent publication US6737383B1, “Herbicidal oxadiazolidines” (priority 1999, dated 2004)
